Inconclusive results and toxic doses are left out. Cut-off read from the data, not from the text of the source: active = T/C of 150% or more; inactive = T/C below 125%.
Test system: L1210 leukemia ip in BDF1 mice, survival T/C
Assay: NCI In Vivo Anticancer Drug Screen. Data for tumor model L1210 Leukemia (intraperitoneal) in B6D2F1 (BDF1) mice
Conditions: endpoint: mean survival time, higher = longer survival
Method in brief: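 Survival endpoint. Drug-treated group vs vehicle group, expressed as T divided by C. Tumor passaged by transplantation.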

[1] = dose: 100.0 mg/kg/injection, schedule: Q01DX009 (ip), vehicle: saline with Tween-80
[2] = dose: 100.0 mg/kg/injection, schedule: Q04DX003 (ip), vehicle: saline with Tween-80
[3] = dose: 200.0 mg/kg/injection, schedule: Q01DX009 (ip), vehicle: saline with Tween-80
[4] = dose: 200.0 mg/kg/injection, schedule: Q04DX003 (ip), vehicle: saline with Tween-80
[5] = dose: 400.0 mg/kg/injection, schedule: Q04DX003 (ip), vehicle: saline with Tween-80
[6] = dose: 100.0 mg/kg/injection, schedule: Q04DX003 (ip), vehicle: Klucel (hydroxypropylcellulose) (HPC)
[7] = dose: 200.0 mg/kg/injection, schedule: Q04DX003 (ip), vehicle: Klucel (hydroxypropylcellulose) (HPC)
[8] = dose: 400.0 mg/kg/injection, schedule: Q04DX003 (ip), vehicle: Klucel (hydroxypropylcellulose) (HPC)
[9] = dose: 50.0 mg/kg/injection, schedule: Q01DX001 (ip), vehicle: carboxymethylcellulose (CMC)
[10] = dose: 100.0 mg/kg/injection, schedule: Q01DX001 (ip), vehicle: carboxymethylcellulose (CMC)
[11] = dose: 200.0 mg/kg/injection, schedule: Q01DX001 (ip), vehicle: carboxymethylcellulose (CMC)
[12] = dose: 400.0 mg/kg/injection, schedule: Q01DX001 (ip), vehicle: carboxymethylcellulose (CMC)
[13] = dose: 100.0 mg/kg/injection, schedule: Q01DX009 (ip), vehicle: Klucel (hydroxypropylcellulose) (HPC)
[14] = dose: 200.0 mg/kg/injection, schedule: Q01DX009 (ip), vehicle: Klucel (hydroxypropylcellulose) (HPC)
[15] = dose: 400.0 mg/kg/injection, schedule: Q01DX009 (ip), vehicle: saline with Tween-80
[16] = dose: 100.0 mg/kg/injection, schedule: Q04DX003 (ip), vehicle: saline
[17] = dose: 200.0 mg/kg/injection, schedule: Q04DX003 (ip), vehicle: saline
[18] = dose: 400.0 mg/kg/injection, schedule: Q04DX003 (ip), vehicle: saline
[19] = dose: 400.0 mg/kg/injection, schedule: Q01DX009 (ip), vehicle: Klucel (hydroxypropylcellulose) (HPC)

Measured: T/C

CC(C)(Cl)Cc1ccccc1
inactive: [1] 88 % of control | [2] 103 % of control | [3] 91 % of control | [4] 105 % of control | [5] 94 % of control

CC1(C)Cc2cccc(C=C(C#N)C#N)c2O1
inactive: [6] 106 % of control | [7] 97 % of control | [8] 113 % of control

CCCCCCP(=S)(CCCC)CCCCCC
inactive: dose: 100.0 mg/kg/injection, schedule: Q04DX002 (ip), vehicle: Klucel (hydroxypropylcellulose) (HPC) 102 % of control | dose: 200.0 mg/kg/injection, schedule: Q04DX002 (ip), vehicle: Klucel (hydroxypropylcellulose) (HPC) 102 % of control | dose: 400.0 mg/kg/injection, schedule: Q04DX002 (ip), vehicle: Klucel (hydroxypropylcellulose) (HPC) 102 % of control

CN(C)c1ccc2oc(=O)c3ccccc3c2c1
inactive: [9] 100 % of control | [10] 92 % of control | [11] 100 % of control | [12] 94 % of control

CC1CCN1Cc1ccccc1 (stereo unspecified)
inactive: dose: 12.5 mg/kg/injection, schedule: Q04DX003 (ip), vehicle: acetone 98 % of control | dose: 25.0 mg/kg/injection, schedule: Q04DX003 (ip), vehicle: acetone 104 % of control | dose: 50.0 mg/kg/injection, schedule: Q04DX003 (ip), vehicle: acetone 104 % of control | dose: 75.0 mg/kg/injection, schedule: Q01DX009 (ip), vehicle: saline 94 % of control

CC(CC(C)(C)C(C)(C)C)C(C)(C)C (stereo unspecified)
inactive: dose: 100.0 mg/kg/injection, schedule: Q01DX001 (ip), vehicle: saline 90 % of control | dose: 200.0 mg/kg/injection, schedule: Q01DX001 (ip), vehicle: saline 100 % of control | dose: 400.0 mg/kg/injection, schedule: Q01DX001 (ip), vehicle: saline 107 % of control

O=C(Nc1ccc2ncccc2c1)Nc1ccc2ncccc2c1
inactive: dose: 50.0 mg/kg/injection, schedule: Q01DX009 (ip), vehicle: Klucel (hydroxypropylcellulose) (HPC) 90 % of control | dose: 50.0 mg/kg/injection, schedule: Q04DX003 (ip), vehicle: Klucel (hydroxypropylcellulose) (HPC) 89 % of control | [13] 93 % of control | [14] 93 % of control | [7] 86 % of control

C=CCN(CC=C)C(=O)Nc1ccc(Cl)c(C(F)(F)F)c1
inactive: [1] 97 % of control | [3] 105 % of control | [15] 110 % of control

CC(C)(C)C(=O)Nc1n[nH]c(C#N)c1C#N
inactive: dose: 50.0 mg/kg/injection, schedule: Q04DX002 (ip), vehicle: other 95 % of control | dose: 100.0 mg/kg/injection, schedule: Q04DX002 (ip), vehicle: other 106 % of control | dose: 200.0 mg/kg/injection, schedule: Q04DX002 (ip), vehicle: other 113 % of control

[Se]c1ccnc([Se])n1
inactive: [2] 89 % of control | [4] 94 % of control

COCCOC(=O)CCCCC(=O)OCCOC
inactive: [16] 107 % of control | [17] 100 % of control | [18] 94 % of control

O=C(O)/C=C\C(=O)NCCCNC(=O)/C=C\C(=O)O
inactive: [10] 101 % of control | [11] 96 % of control | [12] 93 % of control

CCCCCCCCCCCc1cc(=O)n(-c2ccccc2)n1C
inactive: dose: 12.5 mg/kg/injection, schedule: Q04DX003 (ip), vehicle: saline with Tween-80 92 % of control | dose: 25.0 mg/kg/injection, schedule: Q04DX003 (ip), vehicle: saline with Tween-80 98 % of control | dose: 50.0 mg/kg/injection, schedule: Q04DX003 (ip), vehicle: saline with Tween-80 95 % of control | [4] 102 % of control

COc1ccc2nc(NCN3C(=O)c4ccccc4C3=O)sc2c1
inactive: [1] 96 % of control | dose: 100.0 mg/kg/injection, schedule: Q04DX003 (ip), vehicle: acetone 88 % of control | [3] 95 % of control | dose: 200.0 mg/kg/injection, schedule: Q04DX003 (ip), vehicle: acetone 88 % of control | [15] 93 % of control | dose: 400.0 mg/kg/injection, schedule: Q04DX003 (ip), vehicle: acetone 90 % of control

O=c1oc2ccccc2c(N2CCCCC2)c1Cl
inactive: dose: 100.0 mg/kg/injection, schedule: Q04DX002 (ip), vehicle: gum acacia 111 % of control | dose: 200.0 mg/kg/injection, schedule: Q04DX002 (ip), vehicle: gum acacia 104 % of control | dose: 400.0 mg/kg/injection, schedule: Q04DX002 (ip), vehicle: gum acacia 93 % of control

c1ccc2c(c1)C1CC(N3CCCCC3)C2c2ccccc21 (stereo unspecified)
inactive: dose: 100.0 mg/kg/injection, schedule: Q01DX009 (ip), vehicle: saline 102 % of control | dose: 100.0 mg/kg/injection, schedule: Q04DX003 (ip), vehicle: alcohol 95 % of control | dose: 200.0 mg/kg/injection, schedule: Q04DX003 (ip), vehicle: alcohol 95 % of control | dose: 400.0 mg/kg/injection, schedule: Q01DX009 (ip), vehicle: saline 100 % of control | dose: 400.0 mg/kg/injection, schedule: Q04DX003 (ip), vehicle: alcohol 93 % of control

CCC(C)OC(=O)Nc1cccc(OC(=O)NC(C)C)c1 (stereo unspecified)
inactive: [2] 96 % of control | [4] 102 % of control | [5] 93 % of control

COC(=O)CNCc1ccccc1
inactive: dose: 100.0 mg/kg/injection, schedule: Q01DX009 (ip), vehicle: water 98 % of control | dose: 200.0 mg/kg/injection, schedule: Q01DX009 (ip), vehicle: water 115 % of control | dose: 400.0 mg/kg/injection, schedule: Q01DX009 (ip), vehicle: water 100 % of control

CC[N+](C)(C)CCCOC(=O)C1C2CC3CC(C2)CC1C3 (stereo unspecified)
inactive: dose: 25.0 mg/kg/injection, schedule: Q04DX002 (ip), vehicle: saline 88 % of control | dose: 50.0 mg/kg/injection, schedule: Q04DX002 (ip), vehicle: saline 98 % of control

CCc1ccccc1NC(=O)Nc1ccc(S(N)(=O)=O)cc1
inactive: [13] 98 % of control | [14] 97 % of control | [19] 103 % of control

C=CCSc1ccccc1C(=O)O
inactive: [9] 122 % of control | [10] 95 % of control | [11] 106 % of control | [12] 106 % of control

CCOC(=O)c1cccc([N+](=O)[O-])c1I
inactive: [16] 93 % of control | [17] 95 % of control | [18] 96 % of control

COC(=O)C1(C(=O)OC)C2CCCCC21C (stereo unspecified)
inactive: dose: 100.0 mg/kg/injection, schedule: Q01DX001 (ip), vehicle: Klucel (hydroxypropylcellulose) (HPC) 103 % of control | [13] 102 % of control | [6] 106 % of control | dose: 200.0 mg/kg/injection, schedule: Q01DX001 (ip), vehicle: Klucel (hydroxypropylcellulose) (HPC) 102 % of control | [14] 101 % of control | [7] 106 % of control | dose: 400.0 mg/kg/injection, schedule: Q01DX001 (ip), vehicle: Klucel (hydroxypropylcellulose) (HPC) 95 % of control | [19] 102 % of control | [8] 101 % of control
